In the supplement of paper PMC6045584:
± gives the standard deviation of the averaged measurements.

What was measured:
[1] = compound: CS(=O)(=O)CCNCc1ccc(-c2ccc3ncnc(Nc4ccc(OCc5cccc(F)c5)c(Cl)c4)c3c2)o1 [LAPATINIB]; experiment: surviving fraction relative to DMSO-only wells; higher = less growth inhibition; details: exposure time: 5 days
In short: (§1)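 Viability was determined by CellTiter-Glo luminescence, expressed as surviving fraction normalised to the median of DMSO-only wells. The cells were log-phase tumour cell lines seeded at 250–500 per well in 384-well plates and, after 24 hours, exposed continuously for five days to inhibitors at 0.5, 1, 5, 10, 50, 100, 500 and 1000 nM. Three screens per line were run, keeping only lines with replicate Pearson r >0.7 and median Z' >0.3.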

[2] = compound: O=c1[nH]cc(F)c(=O)[nH]1 [FLUOROURACIL]; experiment: as above; details: exposure time: 5 days
In short: as §1

Row | Test System | surviving fraction ([1]; 0.5 nM) | surviving fraction ([1]; 1 nM) | surviving fraction ([1]; 5 nM) | surviving fraction ([1]; 10 nM) | surviving fraction ([1]; 50 nM) | surviving fraction ([1]; 100 nM) | surviving fraction ([1]; 500 nM) | surviving fraction ([1]; 1000 nM) | surviving fraction ([2]; 0.5 nM) | surviving fraction ([2]; 1 nM) | surviving fraction ([2]; 5 nM) | surviving fraction ([2]; 10 nM) | surviving fraction ([2]; 50 nM) | surviving fraction ([2]; 100 nM) | surviving fraction ([2]; 500 nM) | surviving fraction ([2]; 1000 nM)
1 | CCK81 LARGE INTESTINE | 0.728 ± 0.083 | 0.751 ± 0.054 | 0.826 ± 0.17 | 0.751 ± 0.074 | 0.65 ± 0.16 | 0.536 ± 0.024 | 0.082 ± 0.017 | 0.0653 ± 0.0081 | 0.849 ± 0.12 | 0.804 ± 0.081 | 0.764 ± 0.086 | 0.835 ± 0.13 | 0.851 ± 0.079 | 0.751 ± 0.075 | 0.775 ± 0.042 | 0.609 ± 0.084
2 | G292 BONE | 0.973 ± 0.011 | 1.02 ± 0.052 | 1.03 ± 0.022 | 1.03 ± 0.026 | 1.02 ± 0.029 | 0.999 ± 0.02 | 0.967 ± 0.077 | 0.964 ± 0.015 | 0.993 ± 0.028 | 0.965 ± 0.051 | 1.02 ± 0.037 | 1.01 ± 0.03 | 0.994 ± 0.051 | 0.939 ± 0.027 | 0.941 ± 0.017 | 0.759 ± 0.054
3 | HCC38 BREAST | 1.03 ± 0.17 | 0.933 ± 0.042 | 1 ± 0.35 | 1.09 ± 0.14 | 0.873 ± 0.13 | 0.776 ± 0.097 | 0.757 ± 0.13 | 0.794 ± 0.19 | 1.01 ± 0.2 | 0.97 ± 0.11 | 1.02 ± 0.17 | 1.11 ± 0.14 | 0.8 ± 0.092 | 0.727 ± 0.14 | 0.689 ± 0.027 | 0.644 ± 0.097
4 | HCC70 BREAST | 1.05 ± 0.075 | 1.1 ± 0.076 | 1.16 ± 0.069 | 1.15 ± 0.036 | 1.05 ± 0.07 | 1.13 ± 0.044 | 0.99 ± 0.047 | 0.941 ± 0.058 | 1.06 ± 0.054 | 1.08 ± 0.12 | 1.14 ± 0.083 | 1.12 ± 0.028 | 1.04 ± 0.092 | 1.03 ± 0.06 | 0.778 ± 0.047 | 0.735 ± 0.053
5 | HMLE3 BREAST | 1.04 ± 0.1 | 1.09 ± 0.074 | 1.05 ± 0.065 | 1.07 ± 0.098 | 1.04 ± 0.041 | 1.14 ± 0.13 | 0.992 ± 0.084 | 0.966 ± 0.046 | 1.05 ± 0.097 | 1.11 ± 0.03 | 1.09 ± 0.15 | 1.13 ± 0.043 | 1.06 ± 0.091 | 0.955 ± 0.065 | 0.838 ± 0.034 | 0.702 ± 0.15
6 | HMT3552 BREAST | 1.03 ± 0.033 | 1.02 ± 0.073 | 1.06 ± 0.026 | 1.04 ± 0.075 | 1.02 ± 0.014 | 1.05 ± 0.083 | 0.861 ± 0.12 | 0.944 ± 0.074 | 0.951 ± 0.044 | 0.925 ± 0.085 | 0.976 ± 0.08 | 0.85 ± 0.048 | 1.01 ± 0.036 | 0.89 ± 0.02 | 0.939 ± 0.1 | 0.536 ± 0.033
7 | HS57T BREAST | 0.975 ± 0.054 | 1 ± 0.022 | 1.07 ± 0.074 |  | 1.03 ± 0.044 | 1.09 ± 0.044 | 0.97 ± 0.04 | 0.933 ± 0.037 | 1.02 ± 0.026 | 1.04 ± 0.086 | 1.07 ± 0.056 | 0.995 ± 0.044 | 0.972 ± 0.044 | 1 ± 0.041 | 0.926 ± 0.059 | 0.734 ± 0.061
8 | HS578T BREAST | 1.19 ± 0.11 | 1.03 ± 0.045 | 1.11 ± 0.15 | 0.871 ± 0.14 | 1.04 ± 0.048 | 1.08 ± 0.013 | 0.941 ± 0.052 | 1.05 ± 0.15 | 0.839 ± 0.2 | 1.04 ± 0.043 | 0.904 ± 0.054 | 0.856 ± 0.1 | 0.902 ± 0.19 | 0.817 ± 0.15 | 0.793 ± 0.071 | 0.708 ± 0.041
